The values that follow are results of earlier work, collected in US20140328789A1, “pH-RESPONSIVE CELL SCAFFOLD AND METHOD OF USING SAME” (Research Foundation of the City University of New York, priority 2013, published 2014).

The conditions of this series: for pKa1 Monomer: first pKa; for pKa: cross-linking agent; for pKa2 Monomer: second pKa; for pKa3 Monomer: third pKa.

Consider `C=C(C)C(=O)OCCN(CC)CC` [2-diethylaminoethyl methacrylate], for which the “pKa Monomer” value was “pKa = 7.3”.
For the compound `C=C(C)C(=O)OCCOP(=O)([O-])OCC[N+](C)(C)C` [2-methacryloyloxyethyl phosphorylcholine], the “pKa1 Monomer” value was “pKa1 = 1.9”.
Consider `C/C=C/C(=O)OC(=O)/C=C/C` [Crotonic anhydride], for which the pKa result is recorded as “pKa = 4.61”.
Turning to `C=C(C)C(=O)OC(=O)C(=C)C` [Methacrylic anhydride], the pKa result is given as “pKa = 4.65”.
On to `C=C(C)C(=O)OCCN(C)C` [N,N-Dimethylaminoethyl Methacrylate], for which the “pKa Monomer” value is recorded as “pKa = 7.3-7.5”.
As for `C=CC(=O)NC(C)C` [N-isopropylacrylamide (NIPAM), N-isopropylacrylamide], the “pKa Monomer” value was “pKa ≈ 6”.
For `C=C(C)C(=O)OC1CC(C)(C)N([O])C(C)(C)C1` [TEMPO methacrylate], the “pKa Monomer” value is on record as “pKa = 5.5”.
Turning to `C=C(C)C(=O)OCCN` [aminoethyl methacrylate (AEMA), aminoethyl methacrylate], the “pKa Monomer” value was “pKa = 8.8”.
Regarding `N[C@@H](CCC(=O)O)C(=O)O` [glutamic acid], the “pKa1 Monomer” value is recorded as 2.2, the “pKa2 Monomer” value is recorded as 4.25 and the “pKa3 Monomer” value is given as “pKa3 = 9.67”.
Regarding `C=C(CC(=O)O)C(=O)O` [itaconic acid], the “pKa Monomer” value was “pKa = 4.5”.
For `NCCCC[C@H](N)C(=O)O` [lysine], the “pKa1 Monomer” value is given as 2.2, the “pKa2 Monomer” value was 9.0 and the “pKa3 Monomer” value is on record as “pKa3 = 10.5”.
In the case of albumin, the “pKa Monomer” value is listed as “pKa = 7.4”.
